The text below walks through data of ChEMBL document CHEMBL5260828, “Amphiphilic glycoconjugates as potential anti-cancer chemotherapeutics” (Eur J Med Chem, 2018).

≈ marks a conversion by molar mass, not a printed value.

The first test has as its system K562. Kind of test: Cytotoxicity against human K562 cells by colorimetric assay. In kind it is functional, cell-based.
Details: not given
Molecule `CCCCCCCCCCCCCCCCCCOCC(CO[C@@H]1O[C@H](CO)[C@H](O)[C@H](O)[C@H]1O)OCC` (stereo not given in full) gave an IC50 of 2.5 µM. This lies in the single-digit micromolar range.

As to `CCCCCCCCCCCCCCCCCCOCC(CO[C@H]1O[C@H](CO)[C@@H](O)[C@H](O)[C@@H]1O)OCC` (stereo not given in full), the IC50 worked out at 3 µM.

The next test deals with KB. Kind of test: Cytotoxicity against human KB cells assessed as inhibition of cell growth by measuring effective dose. It is filed as functional. The following applies: read-out: ED50 (the source's name).
As for `C/C=C(\C)C(=O)O[C@H]1[C@H](O)[C@@H](O)[C@H](O[C@@H]2[C@H]3OC(=O)CCCCCCCCC[C@H](CCCCC)O[C@@H]4O[C@H](C)[C@@H](O)[C@H](O)[C@H]4O[C@@H]4O[C@H](COC(=O)C(C)C)[C@@H](O)[C@H](O)[C@H]4O[C@H](O[C@H]2C)[C@@H]3OC(=O)[C@@H](C)[C@H](C)O)O[C@@H]1C` [ORIZABIN XI], the EC50 was 1 mg/L (≈ 0.903 µM).

For `CCCCC[C@H]1CCCCCCCCCC(=O)O[C@@H]2[C@@H](O[C@@H]3O[C@H](C)[C@@H](OC(=O)[C@@H](C)CC)[C@H](O)[C@H]3O)[C@H](C)O[C@@H](O[C@H]3[C@H](O[C@H]4[C@H](O1)O[C@H](C)[C@@H](O)[C@@H]4O)O[C@H](COC(=O)[C@@H](C)CC)[C@@H](O)[C@@H]3O)[C@@H]2OC(=O)[C@H](C)[C@@H](C)O` [ORIZABIN XVIII], the EC50 was found to be 1 mg/L (≈ 0.89 µM). The same measure, in the same setting: then `C/C=C(\C)C(=O)O[C@H]1[C@H](O)[C@@H](O)[C@H](O[C@@H]2[C@H]3OC(=O)CCCCCCCCC[C@H](CCCCC)O[C@@H]4O[C@H](C)[C@@H](O)[C@H](O)[C@H]4O[C@@H]4O[C@H](COC(=O)[C@@H](C)[C@H](C)O)[C@@H](O)[C@H](O)[C@H]4O[C@H](O[C@H]2C)[C@@H]3OC(=O)[C@@H](C)CC)O[C@@H]1C` [ORIZABIN XVII], with 1 mg/L (≈ 0.892 µM); and `C/C=C(\C)C(=O)O[C@H]1[C@H](O)[C@@H](O)[C@H](O[C@@H]2[C@H]3OC(=O)CCCCCCCCC[C@H](CCCCC)O[C@@H]4O[C@H](C)[C@@H](O)[C@H](O)[C@H]4O[C@@H]4O[C@H](COC(=O)[C@H](C)[C@@H](C)O)[C@@H](O)[C@H](O)[C@H]4O[C@H](O[C@H]2C)[C@@H]3OC(=O)[C@@H](C)CC)O[C@@H]1C` [ORIZABIN XVI], with 1 mg/L (≈ 0.892 µM); and `C/C=C(\C)C(=O)O[C@H]1[C@H](O)[C@@H](O)[C@H](O[C@@H]2[C@H]3OC(=O)CCCCCCCCC[C@H](CCCCC)O[C@@H]4O[C@H](C)[C@@H](O)[C@H](O)[C@H]4O[C@@H]4O[C@H](COC(=O)[C@@H](C)CC)[C@@H](O)[C@H](O)[C@H]4O[C@H](O[C@H]2C)[C@@H]3OC(=O)[C@@H](C)[C@H](C)O)O[C@@H]1C` [ORIZABIN XV], with 1 mg/L (≈ 0.892 µM). On the same count and under the same terms, then `CCCCC[C@H]1CCCCCCCCCC(=O)O[C@@H]2[C@@H](O[C@@H]3O[C@H](C)[C@@H](OC(=O)[C@@H](C)CC)[C@H](O)[C@H]3O)[C@H](C)O[C@@H](O[C@H]3[C@H](O[C@H]4[C@H](O1)O[C@H](C)[C@@H](O)[C@@H]4O)O[C@H](COC(=O)[C@@H](C)[C@H](C)O)[C@@H](O)[C@@H]3O)[C@@H]2OC(=O)[C@@H](C)CC` [ORIZABIN XXI], with 1 mg/L (≈ 0.89 µM); and `CCCCC[C@H]1CCCCCCCCCC(=O)O[C@@H]2[C@@H](O[C@@H]3O[C@H](C)[C@@H](OC(=O)[C@@H](C)CC)[C@H](O)[C@H]3O)[C@H](C)O[C@@H](O[C@H]3[C@H](O[C@H]4[C@H](O1)O[C@H](C)[C@@H](O)[C@@H]4O)O[C@H](COC(=O)[C@H](C)[C@@H](C)O)[C@@H](O)[C@@H]3O)[C@@H]2OC(=O)[C@@H](C)CC` [ORIZABIN XX], with 1 mg/L (≈ 0.89 µM); and `C/C=C(\C)C(=O)O[C@H]1[C@H](O)[C@@H](O)[C@H](O[C@@H]2[C@H]3OC(=O)CCCCCCCCC[C@H](CCCCC)O[C@@H]4O[C@H](C)[C@@H](O)[C@H](O)[C@H]4O[C@@H]4O[C@H](COC(=O)C(C)C)[C@@H](O)[C@H](O)[C@H]4O[C@H](O[C@H]2C)[C@@H]3OC(=O)[C@H](C)[C@@H](C)O)O[C@@H]1C` [ORIZABIN X], with 1 mg/L (≈ 0.903 µM).
